Experimental findings from US10414811B2, “Protease-resistant lipidated GLP-1 analogs” (MEDIMMUNE LIMITED, priority 2015, dated 2019) are described below.

Like-named read-outs stand apart in the source and are kept apart here. Numbered stars: 1 amine (or outer) side, 2 acyl side, 3 side chain; on linkers, the order of the positions; unused ones are H or OH. Square brackets hold non-standard residues; d marks the D form. Side chains are listed from the residue outwards. Peptide text beside a SMILES is read from it. * marks the point of attachment. γGlu = O=C(O)[C@H](CCC(=O)[*:2])N[*:1]; Palmitoyl = CCCCCCCCCCCCCCCC(=O)*; αMeF = C[C@](N)(Cc1ccccc1)C(=O)O; αMeK = C[C@](N)(CCCCN)C(=O)O; αMeS = C[C@](N)(CO)C(=O)O; Aib = CC(C)(N)C(=O)O Some results are limits rather than exact numbers.

What all share (format): cell-based
Assay [1] addresses T1, human glucagon receptor (GCGR) (Homo sapiens, UniProt P47871).
T1 construct: expressed in transfected cells
Description: cAMP assay, human GCGR cells. The following applies: cAMP assay. The method, boiled down:
(§1)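 Peptide-stimulated cAMP measured by two-step HTRF after a 30 min room-temperature incubation with receptor-expressing cells (hGLP-1R, hGIPR at 1×10^5 cells/ml; hGCGR at 2×10^5 cells/ml). Duplicate dilutions; EC50 from 4-parameter logistic fit of % Delta F.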

Assay [2] addresses T2, human GLP-1 receptor (GLP-1R) (Homo sapiens, UniProt P43220).
T2 construct: expressed in transfected cells
Description: cAMP assay, human GLP-1R cells. The method, boiled down: as §1

The target in assay [3] is T3, human glucose-dependent insulinotropic peptide receptor (GIPR) (Homo sapiens, UniProt P48546).
T3 construct: expressed in transfected cells
T3 sequence (P48546 22-466): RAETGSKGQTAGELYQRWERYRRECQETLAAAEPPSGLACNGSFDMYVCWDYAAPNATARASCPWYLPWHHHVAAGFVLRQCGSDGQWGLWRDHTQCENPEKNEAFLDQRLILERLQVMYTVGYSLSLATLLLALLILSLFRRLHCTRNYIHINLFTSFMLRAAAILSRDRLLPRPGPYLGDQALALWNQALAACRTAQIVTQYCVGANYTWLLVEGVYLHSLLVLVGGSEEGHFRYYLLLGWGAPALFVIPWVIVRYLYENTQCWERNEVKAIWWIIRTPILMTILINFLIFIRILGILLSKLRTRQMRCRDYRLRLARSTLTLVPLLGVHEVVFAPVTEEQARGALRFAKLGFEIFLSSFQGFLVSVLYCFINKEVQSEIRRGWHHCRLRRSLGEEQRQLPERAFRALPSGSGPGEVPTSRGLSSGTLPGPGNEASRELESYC
Description: cAMP assay, human GIPR cells. The following applies: cAMP assay. The essentials: as §1

Setting [4] is: first determination (n1), read-out: Primary assay EC50 Gluc-R (n1).
[5] abbreviates: second determination (n2), read-out: Primary assay EC50 Gluc-R (n2).
The mark [6] stands for this setting: cAMP assay, first determination (n1), read-out: Primary assay EC50 GLP-1R n1.
Setting [7] is: cAMP assay, second determination (n2), read-out: Primary assay EC50 GLP-1R n2.
[8] abbreviates: mean of n1 and n2, read-out: Mean pM GLP-1R.
The mark [9] stands for this setting: first determination (n1), read-out: Primary assay EC50 GIP-R (n1).
Where [10] appears, read: second determination (n2), read-out: Primary assay EC50 GIP-R (n2).

T2 sequence (P43220 24-463): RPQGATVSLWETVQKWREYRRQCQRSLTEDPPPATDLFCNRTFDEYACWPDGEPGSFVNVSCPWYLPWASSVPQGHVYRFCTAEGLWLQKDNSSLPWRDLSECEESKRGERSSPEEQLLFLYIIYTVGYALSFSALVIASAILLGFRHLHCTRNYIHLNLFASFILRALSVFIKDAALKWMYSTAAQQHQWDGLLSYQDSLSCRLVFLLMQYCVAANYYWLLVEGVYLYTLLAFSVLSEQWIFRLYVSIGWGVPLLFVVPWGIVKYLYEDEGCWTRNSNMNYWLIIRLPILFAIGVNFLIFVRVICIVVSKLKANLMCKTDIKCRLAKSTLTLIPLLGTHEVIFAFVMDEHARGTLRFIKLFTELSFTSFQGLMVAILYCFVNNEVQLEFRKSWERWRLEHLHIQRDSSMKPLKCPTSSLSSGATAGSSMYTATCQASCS
T1 sequence (P47871 26-477): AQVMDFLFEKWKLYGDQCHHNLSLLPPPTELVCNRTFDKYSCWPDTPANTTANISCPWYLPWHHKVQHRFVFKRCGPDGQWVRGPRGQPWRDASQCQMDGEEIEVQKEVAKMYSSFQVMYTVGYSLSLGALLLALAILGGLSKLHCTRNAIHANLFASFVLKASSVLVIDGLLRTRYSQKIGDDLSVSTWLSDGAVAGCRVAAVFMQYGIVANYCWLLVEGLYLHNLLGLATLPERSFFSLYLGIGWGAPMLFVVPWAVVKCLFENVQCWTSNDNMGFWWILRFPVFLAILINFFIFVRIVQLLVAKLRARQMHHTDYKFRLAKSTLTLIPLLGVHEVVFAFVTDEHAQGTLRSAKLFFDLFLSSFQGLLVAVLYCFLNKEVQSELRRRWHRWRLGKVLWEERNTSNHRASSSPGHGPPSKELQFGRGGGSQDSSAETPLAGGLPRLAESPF

For the compound `CCCCCCCCCCCCCCCC(=O)N[C@@H](CCC(=O)NCCCC[C@H](NC(=O)CNC(=O)CNC(=O)[C@](C)(CCCCN)NC(=O)[C@@H](NC(=O)[C@@H](NC(=O)[C@](C)(Cc1ccccc1)NC(=O)[C@H](C)NC(=O)[C@@H](NC(=O)[C@](C)(Cc1ccccc1)NC(=O)[C@H](CCC(=O)O)NC(=O)[C@](C)(CCCCN)NC(=O)[C@H](C)NC(=O)[C@H](C)NC(=O)[C@H](CCC(=O)O)NC(=O)CNC(=O)[C@H](CCC(=O)O)NC(=O)[C@H](CC(C)C)NC(=O)[C@](C)(Cc1ccccc1)NC(=O)[C@H](CO)NC(=O)[C@](C)(CO)NC(=O)[C@@H](NC(=O)[C@H](CC(=O)O)NC(=O)[C@H](CO)NC(=O)[C@@H](NC(=O)[C@](C)(Cc1ccccc1)NC(=O)[C@H](CO)NC(=O)CNC(=O)[C@H](CCC(=O)O)NC(=O)C(C)(C)NC(=O)[C@@H](N)Cc1c[nH]cn1)[C@@H](C)O)C(C)C)[C@@H](C)CC)C(C)C)C(C)C)C(N)=O)C(=O)O` [compound 32] (H-H[Aib]EGS[αMeF]TSDV[αMeS]S[αMeF]LEGEAA[αMeK]E[αMeF]IA[αMeF]VV[αMeK]GGK([γGlu-Palmitoyl])-NH2), the EC50 in assay [1] (setting [4]) was at least 90 nM; in assay [1] (setting [5]), at least 90 nM; in assay [2] (setting [6]) it was 36 pM; in assay [2] (setting [7]) it was 18 pM; in assay [2] (setting [8]) it was 27 pM; in assay [3] (setting [9]), at least 90 nM. For the same compound, in assay [3] (setting [10]), the EC50 was at least 90 nM.
In the case of `CCCCCCCCCCCCCCCC(=O)N[C@@H](CCC(=O)NCCCC[C@H](NC(=O)CNC(=O)[C@](C)(CCCCN)NC(=O)[C@@H](NC(=O)[C@@H](NC(=O)[C@](C)(Cc1ccccc1)NC(=O)[C@H](C)NC(=O)[C@@H](NC(=O)[C@](C)(Cc1ccccc1)NC(=O)[C@H](CCC(=O)O)NC(=O)[C@](C)(CCCCN)NC(=O)[C@H](C)NC(=O)[C@H](C)NC(=O)[C@H](CCC(=O)O)NC(=O)CNC(=O)[C@H](CCC(=O)O)NC(=O)[C@H](CC(C)C)NC(=O)[C@](C)(Cc1ccccc1)NC(=O)[C@H](CO)NC(=O)[C@](C)(CO)NC(=O)[C@@H](NC(=O)[C@H](CC(=O)O)NC(=O)[C@H](CO)NC(=O)[C@@H](NC(=O)[C@](C)(Cc1ccccc1)NC(=O)[C@H](CO)NC(=O)CNC(=O)[C@H](CCC(=O)O)NC(=O)C(C)(C)NC(=O)[C@@H](N)Cc1c[nH]cn1)[C@@H](C)O)C(C)C)[C@@H](C)CC)C(C)C)C(C)C)C(N)=O)C(=O)O` [compound 70] (H-H[Aib]EGS[αMeF]TSDV[αMeS]S[αMeF]LEGEAA[αMeK]E[αMeF]IA[αMeF]VV[αMeK]GK([γGlu-Palmitoyl])-NH2; N-terminus assumed), the EC50 was at least 27 nM in assay [1] (setting [4]); at least 27 nM in assay [1] (setting [5]); 74 pM in assay [2] (setting [6]); 92 pM in assay [2] (setting [7]); 83 pM in assay [2] (setting [8]); at least 27 nM in assay [3] (setting [9]). In assay [3] (setting [10]), the EC50 was at least 27 nM.
